Test results published in patent publication US9913862B2, “Methods of treating gram-negative microbial infections” (TRUSTEES OF BOSTON UNIVERSITY, priority 2011, dated 2018).
Like-named read-outs stand apart in the source and are kept apart here.

What was measured:
E. coli [1] = conditions: ΔdsbA knockout; 1 h; 30 μM AgNO3
E. coli [2] = test system: E. coli
Method: Transmission electron microscopy: Samples analyzed with transmission electron microscopy were prepared using the following procedure: 100 μL samples were taken, centrifuged and resuspended in 1×PBS twice. To fix the bacterial cells, the samples were centrifuged and resuspended in 1 mL of 2.5% glutaraldehyde solution in PBS for 30 min. The cells were then dehydrated by exposing them for 10 min to a series of ethanol concentration solutions (50, 60, 80, 90 and 100% ethanol/PBS solutions). The cells were finally embedded into Spurr resin and left to polymerize in an oven at 60° C. for 24 h. The polymerized samples were sectioned into slices of thickness of ˜60 nm using a microtome. The sliced samples were analyzed in a Jeol 1200EX-80 kV.

E. Coli [3] = assay: Mouse peritonitis model, E. coli counts in peritoneal cavity; format: in vivo, mice; conditions: after 24 hours; single agent i.p.; 30 mg vancomycin/kg or 6 mg AgNO3/kg
Method: (§1) Minimum lethal dose (MLD) of E. coli for peritonitis mouse model: For all animal experiments, 6-week-old C57BL6 male mice (body weight, ˜20 g) were used. Serial dilutions of E. Coli ranging from 1×10^6-1×10^9 cfu/mouse were introduced into the peritoneal cavity of the mice in 500 μL aliquots of sterile saline supplemented with 8% mucine. […] The MLD was determined to be 5×10^6 cfu/mouse by measuring the lowest concentration of E. Coli that killed 100% of the recipient mice.
Mouse Peritonitis Model: Inbred, wildtype male C57BL/6 mice (6 weeks; ˜20 g) were used. After one week of quarantine, inoculation was performed by intraperitoneal (i.p.) injection of 500 μL of the MLD E. Coli inoculum using a 26-gauge syringe. The inoculum was delivered in suspension with 8% (w/v) mucine in sterile saline. 1 h after introduction of the inoculum, the untreated control group (t=0) was euthanized. Subsequently, antibacterial therapy was initiated by intraperitoneal injection. Ten mice per group received antibacterial treatments. At time 0 (control only), 8, 16 and 24 h, mice were euthanized. Peritoneal washes were performed by injecting 1.0 mL of sterile saline in the intraperitoneal followed by a massage of the abdomen. Subsequently, the abdomen was opened and 200 μL of peritoneal fluid (PF) was recovered from the peritoneum for analysis of E. Coli cfu/mL.

dps reporter strain = dps reporter strain (OxyR disulfide bond formation sensor); format: cell-based, E. coli; conditions: 1 h
Description: The forward primer for PCR was […] […] (SEQ ID NO: 2). […] Calibrite beads (Becton Dickinson) were used for instrument calibration. FlowJo was used to process flow cytometric data.

Fur reporter strain = conditions: one hour of treatment; 15 and 30 μM AgNO3
Method: (§2) Iron misregulation superoxide production and disulfide bond formation measurements: Iron regulation and superoxide production were measured using previously constructed genetic reporter strains. A disulfide bond formation sensor was constructed based on activation of the OxyR protein, which forms a disulfide bond in the presence of H2O2. The disulfide bond formation sensor was constructed by PCR-amplifying the native dps promoter and cloning it into the BamHI and XhoI restriction sites of the pZE21 vector [33]. The forward primer for PCR was […] (SEQ ID NO: 1), and the reverse primer was […] (SEQ ID NO: 2). The data were collected using a Becton Dickinson FACSCalibur flow cytometer with a 488-nm argon laser and a 515-545 nm emission filter (FL1) at high flow rate. Calibrite beads (Becton Dickinson) were used for instrument calibration. FlowJo was used to process flow cytometric data.

soxS reporter strain = conditions: 1 h, 30 μM AgNO3
Method: as §2

E. coli [4] = format: cell-based; conditions: for ROS production when sublethal Ag+ is added to the antibiotic: sublethal antibiotic plus 15 μM AgNO3
Description: FlowJo was used to process flow cytometric data.

[5] = test system: Fe—S clusters in E. Coli cell lysate; conditions: 30 μM AgNO3 for 1 hr
Method: Iron detection Ferene S colorimetric assay: The release of protein-bound iron in an E. Coli cell lysate was measured using a Ferene-S assay. The lysate was prepared by first growing 150 mL of cells to an OD600 nm of 0.7. The cells were then lysed by sonication in 20 mM Tris/HCl pH 7.2 buffer. The samples were centrifuged and the supernatants containing the cell lysates were collected. Lysates were treated either with heat (90° C. for 20 min) or with 30 μM AgNO3 (for 1 hr). 10 mM Ferene-S was added to each sample and samples were then incubated at room temperature for 1 h. Absorbance at 593 nm was then measured.

mice = conditions: concentrations up to 12 mg AgNO3/kg (70 μM)
E. coli [6] = format: cell-based; conditions: for bactericidal activity when sublethal Ag+ is added to the antibiotic: sublethal antibiotic (0.25 μg/mL gentamicin, 0.03 μg/mL ofloxacin, 1 μg/mL ampicillin) plus 15 μM AgNO3
Method: Antibiotics and chemicals: All experiments presented herein were performed in Luria Bertani (LB) medium (Fisher Scientific). […] Additional chemicals that were used in the Examples include: phosphate buffer saline (PBS) (Sigma), Tris/HCl buffer pH 7.5 (Sigma), ferene-S(Fisher Scientific), 3′-p-hydroxyphenyl fluorescein dye (Invitrogen), propidium iodide (Invitrogen), and thiourea (Fluka).
Media and growth conditions: The growth and survival of untreated exponential-phase E. coli strains were compared with the antibiotic-treated strains. Briefly, cultures from frozen stock were grown overnight. The overnight culture was diluted 1:250 with 25 mL of LB medium in 250 mL flasks and incubated at 37° C., 300 rpm, and 80% humidity. Cells were then grown until an OD600 nm of 0.3. For antibiotic treatments, 500 μL samples were taken from the flasks and transferred to a 24-well plate incubated at 37° C., 900 rpms, and 80% humidity. For the hydroxyl radical (OH•) quenching experiments, thiourea (150 mM) was added simultaneously with the silver salt (e.g., AgNO3). Measurements of OD600 nm were taken using a SpectraFluor Plus (Tecan). For measuring the colony forming unit (cfu) per milliliter (mL), 100 μL of culture was collected and then serially diluted in PBS (pH 7.2). A 5 μL portion of each dilution was plated in LB-agar plates and incubated overnight at 37° C. The colonies were counted and cfu/mL was calculated using the following formula: ((number of colonies)*(dilution factor))/(amount plated).
Strains: All E. Coli experiments were performed with MG1655 (ATCC 700926)-derived strains. The knockouts were constructed using P1 phage transduction and derived from the Keio single-gene knockout collection. Removal of the kanamycin resistance cassette was accomplished using the pcp20 plasmid and confirmed by PCR prior to experimentation.

[7] = test system: human cell lines (primary keratinocytes, primary hepatocytes and neurons)
E. Coli [8] = assay: Mouse peritonitis model, survival assay; format: in vivo, mice; conditions: after 5 days; i.p.; 30 mg vancomycin/kg, 6 mg AgNO3/kg (35 μM)
Method: as §1
Survival Assays: Male C57BL6 6-week old mice (weighing ˜20 g) received intraperitoneal injections of the MLD of E. Coli in a volume of 500 μL with 8% mucine. After 1 h, ten mice per group received either vehicle (PBS) only or infusions of the antibacterial treatments.

O=[N+]([O-])[O-].[Ag+] [Ag^+, silver nitrate]
permeability (PI) of ΔdsbA strain versus treated wildtype (E. coli [1]): more permeable
physical changes of bacterial cells (TEM) at sublethal concentrations (E. coli [2]; 10 μM and 20 μM AgNO3): moderate morphological changes and protein aggregate formation
physical changes of bacterial cells (TEM) (E. coli [2]; bactericidal concentrations (30 μM AgNO3)): protein aggregation and drastic morphological changes in the cell envelope
effect on peritoneal E. Coli cell counts (E. Coli [3]): no effect
dps reporter GFP fluorescence on addition to H2O2 treatment (dps reporter strain; 30 μM AgNO3 added to 0.5 mM H2O2): reduced the fluorescence back to untreated levels
Fur reporter GFP fluorescence relative to untreated cells (Fur reporter strain): significantly increased fluorescence
response of soxS reporter strain (superoxide production) (soxS reporter strain): induce superoxide production
superoxide levels in ΔcydB in response to treatment (soxS reporter strain; soxS reporter in ΔcydB): lower levels of superoxide
HPF fluorescence (OH• production) compared to untreated cells (E. coli [4]; treated for one hour, 30 μM AgNO3, wildtype): detectable increases in fluorescence
hydroxyl radical production in ΔarcA strain compared to wildtype (E. coli [4]; ΔarcA knockout, 1 h, 30 μM AgNO3): lower hydroxyl radical production
hydroxyl radical production in ΔcpxA and ΔcpxR strains (E. coli [4]; ΔcpxA and ΔcpxR knockouts, 1 h, 30 μM AgNO3): lower levels of hydroxyl radical production
OH• production in ΔiscS compared to wildtype cells (E. coli [4]; ΔiscS knockout, 1 h, 30 μM AgNO3): significantly lower OH• production
Fe+2 levels in treated lysate relative to untreated lysate [5]: higher Fe^+2 levels
toxicity in mice (mice): no effect
bactericidal activity against exponentially growing E. coli (E. coli [6]; 30 μM, wildtype): significant bactericidal activity
phenotype of DsbC knockout under treatment (E. coli [6]; DsbC knockout, 30 μM AgNO3): phenotype similar to that exhibited by ΔdsbA
reduction or inhibition of growth compared to untreated microbes (E. coli [6]; silver ions at about 30 μM, FIG. 1A): at least 30%
sensitivity of ΔarcA strain compared to wildtype (E. coli [6]; ΔarcA knockout, 30 μM AgNO3): lower sensitivity
sensitivity of ΔcpxA and ΔcpxR strains versus wildtype (E. coli [6]; ΔcpxA and ΔcpxR knockouts, 30 μM AgNO3): less sensitive
sensitivity of cytochrome bd knockout (ΔcydB) versus wildtype (E. coli [6]; 30 μM AgNO3): less sensitive
sensitivity of cytochrome bd knockout (ΔcydB) versus wildtype (E. coli [6]; 30 μM AgNO3, listed as silver nitrate): considerably less sensitivity
sensitivity of cytochrome bo knockout (ΔcyoA) versus wildtype (E. coli [6]; ΔcyoA knockout): greater sensitivity
sensitivity of ΔdsbA strain versus treated wildtype (E. coli [6]; ΔdsbA knockout, 30 μM AgNO3): more sensitive
sensitivity of TCA cycle gene knockout strains versus wildtype (E. coli [6]; ΔicdA, ΔsucB, Δmdh, ΔacnB, 30 μM AgNO3): less sensitive
phenotype of ΔiscS strain under treatment (E. coli [6]; ΔiscS knockout, 30 μM AgNO3): bacteriostatic phenotype
susceptibility of ΔsecG strain compared to wildtype (E. coli [6]; ΔsecG knockout, 30 μM AgNO3): less susceptible
toxicity in human cell lines [7]: no significant toxicity
mice survived (E. Coli [8]): 50%

OO [H2O2, reference compound]
dps reporter GFP fluorescence relative to untreated cells (dps reporter strain; 0.5 mM H2O2 alone): significantly increased fluorescence

CC1(C)S[C@@H]2[C@H](NC(=O)[C@H](N)c3ccccc3)C(=O)N2[C@H]1C(=O)O [ampicillin, reference compound]
ROS (OH•) production from sublethal antibiotic alone (E. coli [4]; 1 h): no detectable increases in ROS production
ROS production when sublethal Ag+ is added to the antibiotic (E. coli [4]; 1 h): dramatic increases in ROS
bactericidal activity when sublethal Ag+ is added to the antibiotic (E. coli [6]): significantly enhanced bactericidal activity

CN[C@H](CC(C)C)C(=O)N[C@H]1C(=O)N[C@@H](CC(N)=O)C(=O)N[C@H]2C(=O)N[C@H]3C(=O)N[C@H](C(=O)N[C@H](C(=O)O)c4cc(O)cc(O)c4-c4cc3ccc4O)[C@H](O)c3ccc(c(Cl)c3)Oc3cc2cc(c3O[C@@H]2O[C@H](CO)[C@@H](O)[C@H](O)[C@H]2O[C@H]2C[C@](C)(N)[C@H](O)[C@H](C)O2)Oc2ccc(cc2Cl)[C@H]1O [vancomycin, reference compound]
effect on peritoneal E. Coli cell counts (E. Coli [3]): no effect
cell death with combination relative to Ag+ or vancomycin alone (E. coli [6]; 30 μg/mL vancomycin combined with 15, 20 or 30 μM AgNO3): significantly higher levels of cell death
growth of Gram-negative microbes (E. coli) under combination (E. coli [6]; vancomycin combined with silver nitrate, silver ions about 15 μM, FIG. 8D): reduces the growth
mice survived (E. Coli [8]): 10%

gentamicin [reference compound]
ROS (OH•) production from sublethal antibiotic alone (E. coli [4]; 1 h): no detectable increases in ROS production
ROS production when sublethal Ag+ is added to the antibiotic (E. coli [4]; 1 h): dramatic increases in ROS
bactericidal activity when sublethal Ag+ is added to the antibiotic (E. coli [6]): significantly enhanced bactericidal activity
